Source: patent US11498903B2 (BRISTOL-MYERS SQUIBB COMPANY, priority 2017, dated 2022)
Where two headings read alike, the source gives them in different places.

Target: T1, human APJ receptor (Homo sapiens, UniProt P35414)
T1 construct: expressed in transfected cells
T1 sequence (P35414 1-380): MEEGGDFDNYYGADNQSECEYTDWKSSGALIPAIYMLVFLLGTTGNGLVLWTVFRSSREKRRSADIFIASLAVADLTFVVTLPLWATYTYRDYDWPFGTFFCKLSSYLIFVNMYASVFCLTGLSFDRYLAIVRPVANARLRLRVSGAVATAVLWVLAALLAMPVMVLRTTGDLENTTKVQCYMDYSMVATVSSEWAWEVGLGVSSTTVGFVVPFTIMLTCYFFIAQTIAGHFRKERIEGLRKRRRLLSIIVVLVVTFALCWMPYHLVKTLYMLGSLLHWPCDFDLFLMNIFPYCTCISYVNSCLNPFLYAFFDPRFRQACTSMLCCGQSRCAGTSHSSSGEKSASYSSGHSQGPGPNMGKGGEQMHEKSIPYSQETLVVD
Assay: Intracellular cAMP accumulation assay (APJ hcAMP, HTRF)
Assay type: cell-based
Details: HEK293 cells stably expressing human APJ receptor
Experimental: Intracellular cAMP Accumulation Assay
HEK293 cells stably expressing human APJ receptor were used to assess the activity of compounds. Cultured cells were detached and resuspended in the cAMP Homogeneous Time-Resolved Fluorescence (HTRF) assay buffer (Cisbio cat; #62AM4PEJ). The assay was performed in 384-well assay plates (Perkin-Elmer; cat #6008289) according to assay protocol provided by the manufacturer. Serial dilutions of a compound together with assay buffer containing […] IBMX and 2 μM forskolin were added to each well containing 5,000 cells and incubated for 30 minutes at room temperature. Subsequently, cAMP D2 reagent was added in the lysis buffer followed by the EuK antibody (Cisbio; cat #62AM4PEJ) and incubated for 60 min. The fluorescence emission ratio was measured using fluorometer. The intracellular cAMP concentrations (compound-stimulated inhibition of forskolin-mediated cAMP production) were calculated by extrapolation from a standard curve using known cAMP concentrations. The EC50 values were obtained by fitting the data to a sigmoidal concentration-response curve with variable slope. The maximal achievable inhibition of forskolin-induced cAMP levels (Ymax) for each compound was expressed as relative percentage of inhibition attained using pyroglutamated apelin-13 ((Pyrl)apelin-13) peptide, which was set to 100%.
The exemplified Examples disclosed below were tested in the APJ in vitro assays described above and were found having human APJ cyclic AMP (hcAMP) activity. Table 1 lists hcAMP EC50 values measured for the following examples. Ranges are as followε: A=0.0-10 nM; B=10.01-100 nM; C=101-500 nM.

[1] = Table 1, inhibition of forskolin-mediated cAMP production, read-out: APJ hcAMP EC50
[2] = Table 3, read-out: APJ cAMP Human EC50

SMILES | EC50 [1] [µM] | EC50 [2] [µM]
CCC[C@@H](NC(=O)c1ccc(-c2c(Cl)cccc2-c2nc3ccccc3[nH]2)c(C(=O)O)c1)c1ccccc1 (atropisomer, axis not shown) [Example 81, (S)-2′-(1H-benzo[d]imidazol-2-yl)-6′-chloro-4-(((R)-1-phenylbutyl)carbamoyl)-[1,1′-biphenyl]-2-carboxylic acid] | < 0.01 | < 0.01
COC[C@@H](NC(=O)c1ccc(-c2c(Cl)cccc2-c2nc3ccccc3[nH]2)c(C(=O)O)c1)c1ccccc1 (atropisomer, axis not shown) [Example 82, (S)-2′-(1H-benzo[d]imidazol-2-yl)-6′-chloro-4-(((S)-2-methoxy-1-phenylethyl)carbamoyl)-[1,1′-biphenyl]-2-carboxylic acid] |  | 0.01 to 0.1
CCC[C@@H](NC(=O)c1ccc(-c2c(Cl)cccc2-c2nc3cc(OC)c(F)cc3[nH]2)c(C(=O)OC)c1)c1ccccc1 (atropisomer, axis not shown) [Example 83, methyl (S)-2′-chloro-6′-(6-fluoro-5-methoxy-1H-benzo[d]imidazol-2-yl)-4-(((R)-1-phenylbutyl)carbamoyl)-[1,1′-biphenyl]-2-carboxylate] |  | 0.01 to 0.1
CCC[C@@H](NC(=O)c1ccc(-c2c(Cl)cccc2-c2nc3cc(Cl)c(F)cc3[nH]2)c(C(=O)O)c1)c1ccccc1 (atropisomer, axis not shown) [Example 85, (S)-2′-chloro-6′-(5-chloro-6-fluoro-1H-1,3-benzodiazol-2-yl)-4-{[(1R)-1-phenylbutyl]carbamoyl}-[1,1′-biphenyl]-2-carboxylic acid] |  | < 0.01
CCC[C@@H](NC(=O)c1ccc(-c2c(Cl)cccc2-c2nc3cc(Cl)c(F)cc3[nH]2)c(C(=O)OC)c1)c1ccccc1 (atropisomer, axis not shown) [Example 86, (S)-methyl 2′-chloro-6′-(5-chloro-6-fluoro-1H-1,3-benzodiazol-2-yl)-4-{[(1R)-1-phenylbutyl]carbamoyl}-[1,1′-biphenyl]-2-carboxylate] |  | 0.101 to 0.5
CCC[C@@H](NC(=O)c1ccc(-c2c(Cl)cccc2-c2nc3cc(O)c(F)cc3[nH]2)c(C(=O)O)c1)c1ccccc1 (atropisomer, axis not shown) [Example 87, (S)-2′-chloro-6′-(6-fluoro-5-hydroxy-1H-1,3-benzodiazol-2-yl)-4-{[(1R)-1-phenylbutyl]carbamoyl}-[1,1′-biphenyl]-2-carboxylic acid] | < 0.01 | < 0.01
CCC[C@@H](NC(=O)c1ccc(-c2c(Cl)cccc2-c2nc3ccc(F)c(F)c3[nH]2)c(C(=O)O)c1)c1ccccc1 (atropisomer, axis not shown) [Example 88, (S)-2′-chloro-6′-(6,7-difluoro-1H-1,3-benzodiazol-2-yl)-4-{[(1R)-1-phenylbutyl]carbamoyl}-[1,1′-biphenyl]-2-carboxylic acid] |  | < 0.01
CCC[C@@H](NC(=O)c1ccc(-c2c(Cl)cccc2-c2nc3cc(F)c(F)cc3[nH]2)c(C(=O)O)c1)c1ccccc1 (atropisomer, axis not shown) [Example 89, (S)-2′-chloro-6′-(5,6-difluoro-1H-1,3-benzodiazol-2-yl)-4-{[(1R)-1-phenylbutyl]carbamoyl}-[1,1′-biphenyl]-2-carboxylic acid] | < 0.01 | < 0.01
CCC[C@@H](NC(=O)c1ccc(-c2c(Cl)cccc2-c2nc3cc(F)cc(F)c3[nH]2)c(C(=O)O)c1)c1ccccc1 (atropisomer, axis not shown) [Example 90, (S)-2′-chloro-6′-(5,7-difluoro-1H-1,3-benzodiazol-2-yl)-4-{[(1R)-1-phenylbutyl]carbamoyl}-[1,1′-biphenyl]-2-carboxylic acid] | < 0.01 | < 0.01
CCC[C@@H](NC(=O)c1ccc(-c2c(Cl)cccc2-c2nc3cccc(O)c3[nH]2)c(C(=O)O)c1)c1ccccc1 (atropisomer, axis not shown) [Example 92, (S)-2′-chloro-6′-(7-hydroxy-1H-1,3-benzodiazol-2-yl)-4-{[(1R)-1-phenlylbutyl]carbamoyl}-[1,1′-biphenyl]-2-carboxylic acid] | < 0.01 | < 0.01
CCC[C@@H](NC(=O)c1ccc(-c2c(Cl)cccc2-c2nc3cc(Cl)cc(Cl)c3[nH]2)c(C(=O)O)c1)c1ccccc1 (atropisomer, axis not shown) [Example 94, (S)-2′-chloro-6′-(5,7-dichloro-1H-1,3-benzodiazol-2-yl)-4-{[(1R)-1-phenylbutyl]carbamoyl}-[1,1′-biphenyl]-2-carboxylic acid] | < 0.01 | < 0.01
CCC[C@@H](NC(=O)c1ccc(-c2c(Cl)cccc2-c2nc3cc(Cl)cc(C)c3[nH]2)c(C(=O)O)c1)c1ccccc1 (atropisomer, axis not shown) [Example 95, (S)-2′-chloro-6′-(5-chloro-7-methyl-1H-1,3-benzodiazol-2-yl)-4-{[(1R)-1-phenylbutyl]carbamoyl}-[1,1′-biphenyl]-2-carboxylic acid] | < 0.01 | < 0.01
CCC[C@@H](NC(=O)c1ccc(-c2c(Cl)cccc2-c2nc3cc(F)cc(F)c3[nH]2)c(C(=O)O)c1)c1ccccc1 (atropisomer, axis not shown) [Example 96, (S)-2′-chloro-6′-(5,7-difluoro-1H-1,3-benzodiazol-2-yl)-4-{[(1R)-1-phenylbutyl]carbamoyl}-[1,1′-biphenyl]-2-carboxylic acid] | < 0.01 | 
CCC[C@@H](NC(=O)c1ccc(-c2c(Cl)cccc2-c2nc3cc(Cl)c(C)cc3[nH]2)c(C(=O)O)c1)c1ccccc1 (atropisomer, axis not shown) [Example 97, (S)-2′-chloro-6′-(5-chloro-6-methyl-1H-1,3-benzodiazol-2-yl)-4-{[(1R)-1-phenylbutyl]carbamoyl}-[1,1′-biphenyl]-2-carboxylic acid] |  | 0.01 to 0.1
CCC[C@@H](NC(=O)c1ccc(-c2c(Cl)cccc2-c2nc3c(OC)ccc(OC)c3[nH]2)c(C(=O)O)c1)c1ccccc1 (atropisomer, axis not shown) [Example 98, (S)-2′-chloro-6′-(4,7-dimethoxy-1H-1,3-benzodiazol-2-yl)-4-{[(1R)-1-phenylbutyl]carbamoyl}-[1,1′-biphenyl]-2-carboxylic acid] |  | 0.01 to 0.1
CCC[C@@H](NC(=O)c1ccc(-c2c(Cl)cccc2-c2nc3cccc(O)c3[nH]2)c(C(=O)O)c1)c1ccccc1 (atropisomer, axis not shown) [Example 99, (S)-2′-chloro-6′-(7-hydroxy-1H-1,3-benzodiazol-2-yl)-4-{[(1R)-1-phenylbutyl]carbamoyl}-[1,1′-biphenyl]-2-carboxylic acid] | 0.01 to 0.1 | 0.01 to 0.1
CCC[C@@H](NC(=O)c1ccc(-c2c(Cl)cccc2-c2ncc(-c3ccccc3)[nH]2)c(C(=O)O)c1)c1ccccc1 (atropisomer, axis not shown) [Example 102, (S)-2′-chloro-6′-(5-phenyl-1H-imidazol-2-yl)-4-{[(1R)-1-phenylbutyl]carbamoyl}-[1,1′-biphenyl]-2-carboxylic acid] | < 0.01 | < 0.01
CCC[C@@H](NC(=O)c1ccc(-c2c(Cl)cccc2-c2ncc(-c3cccc(OC)c3)[nH]2)c(C(=O)O)c1)c1ccccc1 (atropisomer, axis not shown) [Example 103, (S)-2′-chloro-6′-[5-(3-methoxyphenyl)-1H-imidazol-2-yl]-4-{[(1R)-1-phenylbutyl]carbamoyl}-[1,1′-biphenyl]-2-carboxylic acid] | < 0.01 | < 0.01
CCC[C@@H](NC(=O)c1ccc(-c2c(Cl)cccc2-c2ncc(-c3ccc(C)c(F)c3)[nH]2)c(C(=O)O)c1)c1ccccc1 (atropisomer, axis not shown) [Example 104, (S)-2′-chloro-6′-[5-(3-fluoro-4-methylphenyl)-1H-imidazol-2-yl]-4-{[(1R)-1-phenylbutyl]carbamoyl}-[1,1′-biphenyl]-2-carboxylic acid] | < 0.01 | < 0.01
CCC[C@@H](NC(=O)c1ccc(-c2c(Cl)cccc2-c2ncc(-c3ccc(OC)cc3)[nH]2)c(C(=O)O)c1)c1ccccc1 (atropisomer, axis not shown) [Example 105, (S)-2′-chloro-6′-[5-(4-methoxyphenyl)-1H-imidazol-2-yl]-4-{[(1R)-1-phenylbutyl]carbamoyl}-[1,1′-biphenyl]-2-carboxylic acid] | < 0.01 | < 0.01
